Assay results published in patent US7250442B2, “Dihydroindol-2-one derivatives as steroid hormone nuclear receptor modulators” (Eli Lilly and Company, priority 2003, dated 2007).

biological target: T1, human MR (Homo sapiens, UniProt P08235); test: Mineralocorticoid Receptor Binding Assay ([3H]-aldosterone displacement); settings: full length human MR expressed in Sf9 cells, 0.5 nM [3H]-aldosterone
T1 construct: The full length human MR gene is cloned from a human kidney or human brain cDNA library; made in house; host or cells: Sf9 insect cells (baculovirus, pAcHLT transfer vector)
T1 sequence (P08235 1-984): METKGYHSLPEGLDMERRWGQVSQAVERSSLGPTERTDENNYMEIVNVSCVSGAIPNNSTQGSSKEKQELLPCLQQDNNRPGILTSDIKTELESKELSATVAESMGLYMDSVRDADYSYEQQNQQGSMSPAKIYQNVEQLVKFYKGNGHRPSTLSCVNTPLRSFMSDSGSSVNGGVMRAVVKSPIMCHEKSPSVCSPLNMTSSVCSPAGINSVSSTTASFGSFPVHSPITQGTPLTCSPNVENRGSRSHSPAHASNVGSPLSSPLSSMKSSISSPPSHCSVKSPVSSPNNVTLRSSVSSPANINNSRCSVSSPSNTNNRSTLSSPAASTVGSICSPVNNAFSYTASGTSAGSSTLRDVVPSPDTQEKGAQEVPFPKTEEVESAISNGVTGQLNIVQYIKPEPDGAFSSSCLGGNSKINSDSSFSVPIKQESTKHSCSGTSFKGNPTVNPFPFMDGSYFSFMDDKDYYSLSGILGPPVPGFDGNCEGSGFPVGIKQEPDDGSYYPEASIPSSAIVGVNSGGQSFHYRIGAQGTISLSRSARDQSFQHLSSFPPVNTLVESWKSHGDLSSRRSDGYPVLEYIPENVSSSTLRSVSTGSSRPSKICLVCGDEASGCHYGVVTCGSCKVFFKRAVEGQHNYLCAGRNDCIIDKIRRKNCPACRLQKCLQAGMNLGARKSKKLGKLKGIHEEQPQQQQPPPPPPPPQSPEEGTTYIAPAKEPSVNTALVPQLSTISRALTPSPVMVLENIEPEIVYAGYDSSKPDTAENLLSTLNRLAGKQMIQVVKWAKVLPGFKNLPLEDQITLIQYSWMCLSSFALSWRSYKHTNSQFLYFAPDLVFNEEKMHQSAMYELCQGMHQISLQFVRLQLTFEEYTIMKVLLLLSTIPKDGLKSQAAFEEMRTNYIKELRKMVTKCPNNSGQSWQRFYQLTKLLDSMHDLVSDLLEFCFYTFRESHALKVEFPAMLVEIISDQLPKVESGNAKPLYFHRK
Outline: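 Full-length human MR expressed in Sf9 cells; lysate (20-25 μg protein) incubated with 0.5 nM [3H]-aldosterone and test compound in molybdate/Tris/phosphate/glycerol buffer pH 7.5, 16 h at 4 °C. Bound ligand measured by filtration and scintillation counting; IC50 converted to Ki via Cheng-Prusoff.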

Ki [nM]	Structure (SMILES)
≤ 500	CCOc1cccc(N2C(=O)C(c3cc(C)c(O)c(C)c3)(c3cc(C)c(O)c(C)c3)c3ccccc32)c1 [Example 137, 1-(3-Ethoxy-phenyl)-3,3-bis-(4-hydroxy-3,5-dimethyl-phenyl)-1,3-dihydro-indol-2-one]
≤ 500	Cc1cc(C2(c3cc(C)c(O)c(C)c3)C(=O)N(c3cccc(C(C)C)c3)c3ccccc32)cc(C)c1O [Example 138, 3,3-Bis-(4-hydroxy-3,5-dimethyl-phenyl)-1-(3-isopropyl-phenyl)-1,3-dihydro-indol-2-one]
≤ 500	COc1ccc(N2C(=O)C(c3cc(C)c(O)c(C)c3)(c3cc(C)c(O)c(C)c3)c3ccccc32)cc1OC [Example 140, 1-(3,4-Dimethoxy-phenyl)-3,3-bis-(4-hydroxy-3,5-dimethyl-phenyl)-1,3-dihydro-indol-2-one]
≤ 500	COC(=O)c1cccc(-c2noc(CN3C(=O)C(c4cc(C)c(O)c(C)c4)(c4cc(C)c(O)c(C)c4)c4ccccc43)n2)c1 [Example 141, 3-{5-[3,3-Bis-(4-hydroxy-3,5-dimethyl-phenyl)-2-oxo-2,3-dihydro-indol-1-ylmethyl]-[1,2,4]oxadiazol-3-yl}-benzoic acid methyl ester]
≤ 500	COc1ccc(-c2noc(CN3C(=O)C(c4cc(C)c(O)c(C)c4)(c4cc(C)c(O)c(C)c4)c4ccccc43)n2)cc1 [Example 142, 3,3-Bis-(4-hydroxy-3,5-dimethyl-phenyl)-1-[3-(4-methoxy-phenyl)-[1,2,4]oxadiazol-5-ylmethyl]-1,3-dihydro-indol-2-one]
≤ 500	COc1nccc(N2C(=O)C(c3cc(C)c(O)c(C)c3)(c3cc(C)c(O)c(C)c3)c3ccccc32)n1 [Example 143, 3,3-Bis-(4-hydroxy-3,5-dimethyl-phenyl)-1-(2-methoxy-pyrimidin-4-yl)-1,3-dihydro-indol-2-one]
